Results: PubChem BioAssay AID1421 (Emory University Molecular Libraries Screening Center, 2008)
The source made the active and inactive calls. The rule behind the calls is not given here.

biological target: Prostaglandin E2 receptor EP2 subtype (Homo sapiens) (UniProt P43116); experiment: EP2 receptor modulators, dose response, cell-based, human EP2, PGE2 EC50 shift (AID 1421); details: EP2-expressing cells, PGE2 EC50 shift by compound
Sequence (P43116 whole entry, looked up): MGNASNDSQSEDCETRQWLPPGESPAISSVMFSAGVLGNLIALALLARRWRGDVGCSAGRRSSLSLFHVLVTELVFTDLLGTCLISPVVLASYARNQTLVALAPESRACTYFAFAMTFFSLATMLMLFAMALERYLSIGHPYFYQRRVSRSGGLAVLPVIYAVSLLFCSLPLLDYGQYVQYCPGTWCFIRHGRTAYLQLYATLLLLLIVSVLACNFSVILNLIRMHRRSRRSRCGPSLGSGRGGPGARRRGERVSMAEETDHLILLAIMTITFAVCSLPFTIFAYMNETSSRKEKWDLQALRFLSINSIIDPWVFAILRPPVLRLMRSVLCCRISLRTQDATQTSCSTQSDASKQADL

With `Cc1cc(C)cc(C(=N)c2ccccc2Cc2cccc3ccccc23)c1` the outcome was “active”.
`Cc1ccc2nc(Nc3ccc4[nH]c(=O)[nH]c4c3)c(-n3nc(C)cc3C)nc2c1` was tested, and the outcome was “active”.
With `Cc1ccccc1C(=N)c1ccccc1Cc1cccc2ccccc12` the outcome was “active”.
`CCCOc1ccc(Cl)cc1CNc1ccccc1` was tested, and the outcome was “active”.
`COC(=O)c1sc2nc(N3CCCCC3)c3c(c2c1N)CCCC3` was tested, and the outcome was “active”.
`N#CC1=C(N)S[C@H](C(=O)C23CC4CC(CC(C4)C2)C3)[C@H]1c1ccncc1` was tested, and the outcome was “active”.
For `CC(C)(C)C1CCC(=NNc2ccc(S(N)(=O)=O)cc2[N+](=O)[O-])CC1` (stereo unspecified), the outcome was “active”.
In the case of `Cc1ccc(CSc2ncnc3c2cnn3Cc2ccccc2)cc1C`, the outcome is reported as “active”.
`Cc1cc(C)n(-c2nc3ccccc3nc2Nc2ccc3[nH]c(=O)[nH]c3c2)n1` was tested, and the outcome was “active”.
With `C/C(=N\O)C(=O)OC1CC(C)CCC1C(C)C` (stereo unspecified) the outcome was “active”.
With `Cc1sc(NC(=O)c2ccccc2F)c(CN2CCCCC2C)c1C` (stereo unspecified) the outcome was “active”.
In the case of `COc1cccc2cc(/C(=N/O)c3ccccc3)oc12`, the outcome is reported as “active”.
With `C(=N\N(Cc1ccccc1)c1ccccc1)/c1cccnc1` the outcome was “active”.
In the case of `CCc1ccc(NC(=S)N(Cc2ccccc2)Cc2ccccn2)cc1`, the outcome is reported as “active”.

same assay, conditions: EP2-expressing cells, PGE2 EC50 shift by compound; measured here: PGE2 EC50 at 6.7 uM compound

In order of rising PGE2 EC50 with compound:
1. CCOC1(OCC)C(c2ccc(N)cc2)C(C#N)(C#N)C1(OCC)OCC (stereo unspecified)  0.31 nM
2. COc1ccc(-c2noc(-c3ccccc3-c3ccccc3)n2)cc1OC  0.31 nM
3. CCOC(=O)C1=NN(c2cccc(C)c2)C2(S1)SC(C(C)=O)=C(C)N2c1ccccc1 (stereo unspecified)  0.31 nM
4. CC1C(c2ccccc2)N(C)C(c2ccccc2)C(C)C1(O)C#Cc1ccccc1 (stereo unspecified)  0.32 nM
5. Cc1ccc(-c2cccc(C(=O)NCc3ccccc3)n2)c2ccccc12  0.32 nM
6. CCOC(=O)c1c(-c2cccs2)csc1NC(=O)COC(=O)c1c(C)noc1C  0.32 nM
7. Cc1ccccc1C(=N)c1ccccc1Cc1cccc2ccccc12  0.33 nM
8. O=c1c2c(n3cnnc3n1C1CCCCC1)-c1ccccc1CC21CCCCC1  0.33 nM
9. Nc1ccc(Br)cc1C(=O)c1ccccc1  0.43 nM
10. Cc1cccc(C)c1NC(=O)CSc1nnc(Cn2nnc(-c3ccccc3)n2)n1-c1ccccc1  0.65 nM
11. CCOc1ccc(Cc2n[nH]c(=S)n2Cc2ccccc2)cc1  0.69 nM
12. N#Cc1c(-c2c(Cl)cccc2Cl)noc1/C=C/Nc1ccc(C(=O)O)cc1  0.7 nM
13. O=C(Cc1ccc(F)cc1)Nc1ccccc1Sc1ccccc1  0.7 nM
14. CN(C)c1ncc(S(=O)(=O)c2ccccc2)c(-c2ccccc2Cl)n1  0.72 nM
15. CCOP(=O)(OCC)c1nc(-c2ccc(Cl)cc2)oc1NCc1ccccc1  0.73 nM
16. COc1ccccc1/C=C/C(=O)OCC(=O)Nc1ccccc1Sc1ccccc1  0.76 nM
17. C=CCn1c(=O)c2c3c(sc2n2c(Nc4ccc(OC)cc4)nnc12)CCCC3  0.77 nM
18. O=C(Nc1ccccc1Oc1ccccc1)c1cnccn1  0.78 nM
19. CN(c1ccccc1)c1nc(N2CCCC2)nc(-n2ccnc2)n1  0.79 nM
20. CC1=CC(C)(C)N(S(=O)(=O)c2ccc(F)cc2)c2ccc(C)cc21  0.8 nM
21. Cc1cccc(NC2=NC(=S)N(c3ccc(C(=O)O)cc3)C23CCCCC3)c1  0.8 nM
22. Nn1cnc2c(c1=O)C1(CCCCC1)Cc1ccccc1-2  0.81 nM
23. CCCCOc1ccccc1Cn1c(=O)oc2ccccc21  0.81 nM
24. O=C(Nc1ccccc1N1CCOCC1)c1ccc2ccccc2n1  0.82 nM
25. O=c1c2ccccc2n(Cc2ccc(Cl)cc2)c(=O)n1Cc1ccco1  0.82 nM
26. Cc1cc(C)n(-c2nc3ccccc3nc2Nc2ccc3[nH]c(=O)[nH]c3c2)n1  0.83 nM
27. CCn1c2ccccc2c2cc([N+](=O)[O-])ccc21  0.83 nM
28. O=C(O)c1cc(C(=O)O)cc(N2C(=O)c3ccccc3C2=O)c1  0.83 nM
29. O=C(c1cccs1)N1N=C(c2ccccc2)CC1c1ccc(O)cc1 (stereo unspecified)  0.83 nM
30. O=C(COC(=O)c1ccccc1)Nc1ccccc1Sc1ccccc1  0.83 nM
31. O=c1oc2c3c4c(cc2c(C(F)(F)F)c1CCN1CCOCC1)CCCN4CCC3  0.83 nM
32. Cc1ccc(S(=O)(=O)n2c3ccc(F)cc3c3nc(C)sc32)cc1  0.84 nM
33. COC(=O)c1sc2nc(N3CCCCC3)c3c(c2c1N)CCCC3  0.85 nM
34. CCCc1cc(-c2nc(N)ncc2-c2ccc3c(c2)OCCCO3)c(O)cc1OC  0.86 nM
35. c1ccc(Oc2nc3ccccc3n3cccc23)cc1  0.86 nM
36. Cc1ccc(-c2csc(N(CC3CCCO3)C(=O)c3ccco3)n2)cc1 (stereo unspecified)  0.87 nM
37. C/C(=N\O)C(=O)OC1CC(C)CCC1C(C)C (stereo unspecified)  0.88 nM
38. Cc1sc(NC(=O)c2ccccc2F)c(CN2CCCCC2C)c1C (stereo unspecified)  0.88 nM
39. S=c1[nH]nc(-c2ccc3ccccc3n2)n1Cc1ccccc1  0.91 nM
40. COc1ccc(OC)c(C2=Nn3c(nnc3-c3ccco3)SC2)c1  0.93 nM
41. C#CCn1c(S(=O)(=O)Cc2ccc(F)cc2)nc(-c2ccccc2)c1-c1ccccc1  0.95 nM
42. N#CC1=C(N)S[C@H](C(=O)C23CC4CC(CC(C4)C2)C3)[C@H]1c1ccncc1  0.96 nM
43. COC(=O)C1=C(C)N(C)C(C)=C(C(=O)OC)C1c1cccc(Br)c1  0.97 nM
44. Nc1ccccc1CCCC(=O)O  0.98 nM
45. CCc1ccc2[nH]c(=O)c(C(c3nnnn3CC3CCCO3)N3CCCc4ccccc43)cc2c1 (stereo unspecified)  0.99 nM
46. CC(C)(C)C1CCC(=NNc2ccc(S(N)(=O)=O)cc2[N+](=O)[O-])CC1 (stereo unspecified)  1.01 nM
47. Fc1ccccc1Nc1nc2c(s1)CCc1ccccc1-2  1.03 nM
48. Cc1cccc(/N=C/c2c(O)ccc3oc4c(c23)CCCC4)n1  1.04 nM
49. CCOC(=O)c1ccccc1NC(=O)COc1ccccc1  1.04 nM
50. COc1ccc(N(Cc2ccccc2)S(=O)(=O)c2ccc(C)cc2)cc1  1.05 nM
51. COC(=O)c1sc2[nH]c(=S)n(N)c(=O)c2c1C  1.06 nM
52. C[C@H]1CC[C@@H](C(C)(C)O)CC2=C1CC[C@@H]2C  1.06 nM
53. O=c1[nH]c2ccc(Br)cc2c(-c2ccccc2)c1N1CCOCC1  1.07 nM
54. Cc1ccc(CSc2ncnc3c2cnn3Cc2ccccc2)cc1C  1.08 nM
55. CCCCn1c(C)cc(C)c(S(=O)(=O)c2ccccc2C)c1=O  1.08 nM
56. O=C(c1ccc2c(c1)OCO2)N(Cc1cccs1)C1(C(=O)NC2CCCCC2)CCCCC1  1.08 nM
57. CC(=O)Oc1ccc2ccccc2c1C(NC(=O)Cc1ccccc1)c1ccccc1 (stereo unspecified)  1.1 nM
58. Cc1cccc(NCc2nc3ccccc3n2Cc2ccccc2)c1  1.13 nM
59. CC(C)c1cc(=O)oc2c3c4c(cc12)CCCN4CCC3  1.15 nM
60. CC1=CC(C)(C)N(S(=O)(=O)c2ccc(C)cc2)c2cc(C)ccc21  1.17 nM
61. C=CCCC1(C)C(=O)N(c2ccccc2)c2ccccc21 (stereo unspecified)  1.2 nM
62. Cc1cc(C)cc(C(=N)c2ccccc2Cc2cccc3ccccc23)c1  1.22 nM
63. CCCOc1ccc(Cl)cc1CNc1ccccc1  1.22 nM
64. CN(Cc1cc(Br)cc(Br)c1O)Cc1c(O)ccc2ccccc12  1.22 nM
65. CC(Sc1nc2ccccc2n1C)C(=O)NC(c1ccccc1)c1ccccc1 (stereo unspecified)  1.24 nM
66. O=c1c2c(nc3n1CCCCC3)-c1ccccc1CC21CCCCC1  1.25 nM
67. CSc1nc(NCc2ccco2)c2ccccc2n1  1.3 nM
68. CCOC(=O)C1=C(CC)OC(N)=C(C#N)C1c1ccsc1 (stereo unspecified)  1.33 nM
69. CC(=O)O[C@H]1CC[C@@]2(C)[C@@H](CC[C@H]3[C@H]2CC(=O)[C@]2(C)[C@@H]3C[C@H]3CC(C)=CC(=O)[C@@H]32)C1  1.34 nM
70. Clc1ccc(Cl)c(-c2ccc(/C=N/c3ncn[nH]3)o2)c1  1.34 nM
71. C(=N\N(Cc1ccccc1)c1ccccc1)/c1cccnc1  1.34 nM
72. O=C(Nc1ccccc1N1CCCCC1)c1ccc2nccnc2c1  1.35 nM
73. CCC1(C)Cc2ccccc2-c2nc3n(c(=O)c21)CCS3 (stereo unspecified)  1.37 nM
74. Cc1ccccc1/C=C/c1nc2ccccc2c(=O)n1CCc1ccccc1  1.38 nM
75. Cc1cc(C)c(N=C2CCCN2Cc2ccccc2)c(C#N)c1  1.39 nM
76. Cc1ccc(S(=O)(=O)c2ccc(Oc3cccc(C)c3)cc2)cc1  1.41 nM
77. COc1ccc(Cc2n[nH]c(=S)n2Cc2ccccc2)cc1Cl  1.41 nM
78. C[C@H](C(=O)c1ccccc1)[C@@H](c1ccccc1)N1CCOCC1  1.43 nM
79. CCc1ccc(C2=Nn3c(nnc3-c3cccs3)SC2)cc1  1.43 nM
80. c1ccn(-c2ncnc3sc4c(c23)CCCC4)c1  1.45 nM
81. O=c1[nH]c(=S)c2c(n1-c1ccccc1)CCC2  1.46 nM
82. CCOc1ccccc1-c1nc2c(C(C)(C)C)nn(C)c2c(=O)[nH]1  1.51 nM
83. COc1cccc2cc(/C(=N/O)c3ccccc3)oc12  1.51 nM
84. CCC(c1nnnn1Cc1ccco1)N(Cc1cc2cc(C)cc(C)c2[nH]c1=O)CC1CCCO1 (stereo unspecified)  1.56 nM
85. O=C(c1cc2sccc2n1Cc1ccc(F)cc1)N1CCCc2ccccc21  1.56 nM
86. CCCCc1n[nH]c(=S)n1Cc1ccc(Cl)cc1  1.57 nM
87. Cc1c(F)cccc1NC(=O)CCCCCC1NC(=O)NC1C (stereo unspecified)  1.84 nM
88. CCC(C)(C)n1nnnc1C(c1ccncc1)N1CCC(Cc2ccccc2)CC1 (stereo unspecified)  1.85 nM
89. COc1ccc(-c2c(C(C)=O)c(C)nc3sc4c(c23)NC(c2ccccc2)NC4=O)cc1 (stereo unspecified)  1.87 nM
90. Cc1ccccc1-c1n[nH]c(=S)n1/N=C/c1ccc(-c2ccccc2Br)o1  2.42 nM
91. CC(=O)N1c2ccccc2C(C)(c2ccccc2)CC1(C)C (stereo unspecified)  2.45 nM
92. S=c1[nH]nc(C23CC4CC(CC(C4)C2)C3)n1Cc1ccco1  2.45 nM
93. COc1cc2c(cc1OC)-c1cc(Nc3ccc4c(c3)OCCO4)nc(=O)n1CC2  2.5 nM
94. O=C(/C=C/Nc1ccccc1Oc1ccccc1)c1ccco1  2.67 nM
95. Cc1ccc2nc(Nc3ccc4[nH]c(=O)[nH]c4c3)c(-n3nc(C)cc3C)nc2c1  2.69 nM
96. CCc1ccc(NC(=S)N(Cc2ccccc2)Cc2ccccn2)cc1  2.7 nM
97. CCCCOc1ccc(-c2c(C(=O)Nc3ccccc3)c(C)[nH]c(=S)c2C#N)cc1  2.8 nM
98. Clc1ccc(-c2ccc(/C=N/Nc3cc(N4CCOCC4)nc(N4CCOCC4)n3)o2)cc1  2.85 nM
99. CCOC(=O)c1c(N)nn(C(=O)c2ccccc2)c1-c1ccccc1  2.88 nM
100. COc1ccc(-n2c(-c3cccc(OC)c3)nc(=S)c3c2CCCC3)cc1  2.89 nM
101. O=C(CSc1ncnc2c1oc1ccccc12)Nc1cccc(F)c1  3.15 nM
102. Cc1cccc(C(=O)Nc2cccc(OCC(=O)O)c2)c1  6.72 nM
